Data: ChEMBL document CHEMBL1201862, “PubChem BioAssay data set” (2004)
Activity calls are given as the source filed them.

Tests used:
[1] = target: T1, Peroxisome proliferator-activated receptor gamma (Homo sapiens, UniProt P37231); assay: PPARg partial agonists, dose response, cell-based, luminescence, assay provider (AID 504447); assay type: functional
T1 sequence (P37231 whole entry): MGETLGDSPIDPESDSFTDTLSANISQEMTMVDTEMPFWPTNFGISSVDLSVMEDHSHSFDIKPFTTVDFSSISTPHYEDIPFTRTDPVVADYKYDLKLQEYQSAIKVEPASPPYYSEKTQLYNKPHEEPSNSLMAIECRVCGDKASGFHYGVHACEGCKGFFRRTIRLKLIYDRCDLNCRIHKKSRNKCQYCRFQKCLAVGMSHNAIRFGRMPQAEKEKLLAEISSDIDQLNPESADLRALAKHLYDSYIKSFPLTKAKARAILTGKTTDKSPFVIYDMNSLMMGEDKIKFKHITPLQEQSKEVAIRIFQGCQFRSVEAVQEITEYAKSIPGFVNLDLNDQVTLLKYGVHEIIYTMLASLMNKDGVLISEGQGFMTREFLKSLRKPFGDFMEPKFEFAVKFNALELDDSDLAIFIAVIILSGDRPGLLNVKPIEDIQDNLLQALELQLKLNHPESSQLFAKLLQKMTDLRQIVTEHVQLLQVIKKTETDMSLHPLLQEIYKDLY

[2] = target: Peroxisome proliferator-activated receptor alpha (Homo sapiens, UniProt Q07869); assay: Late stage assay provider counterscreen for partial agonists of the peroxisome proliferator-activated receptor gamma (PPARg): Luminescence-based cell-based dose response assay for partial agonists of the peroxisome proliferator-activated receptor alpha (PPARA). [Related pubchem assays (depositor defined):AID1051, AID1300, AID1319, AID1679, AID1808, AID504446, AID504447, AID504452, AID504453, AID631]; assay type: functional
Sequence of Peroxisome proliferator-activated receptor alpha (Q07869 whole entry, the tested form may be a part): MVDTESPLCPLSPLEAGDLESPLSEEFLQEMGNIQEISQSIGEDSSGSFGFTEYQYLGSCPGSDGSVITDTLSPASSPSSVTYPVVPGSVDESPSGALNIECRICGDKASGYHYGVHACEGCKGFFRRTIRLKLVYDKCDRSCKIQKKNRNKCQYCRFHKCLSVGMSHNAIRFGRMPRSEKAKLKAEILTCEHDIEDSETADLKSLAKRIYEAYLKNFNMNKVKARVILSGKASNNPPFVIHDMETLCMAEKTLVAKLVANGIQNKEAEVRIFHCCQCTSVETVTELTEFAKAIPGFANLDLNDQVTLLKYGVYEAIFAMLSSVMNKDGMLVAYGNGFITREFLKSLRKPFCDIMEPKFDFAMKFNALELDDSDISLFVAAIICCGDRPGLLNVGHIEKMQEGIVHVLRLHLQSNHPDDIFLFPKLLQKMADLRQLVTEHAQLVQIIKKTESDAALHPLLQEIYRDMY

[3] = target: T1, Peroxisome proliferator-activated receptor gamma; assay: PPARg ligand-binding domain binders, dose response, PPARg partial agonist project, biochemical, TR-FRET, LanthaScreen (AID 504446)

CCCCOC(=O)CCN1C(=O)/C(=C/c2ccccc2)SC1=S
active: EC50 [1] 3.2 µM | EC50 [2] 0.12 µM | IC50 [3] 3.2 µM
